Laboratory results: ChEMBL document CHEMBL1132845, “Synthesis and potent anticonvulsant activities of 4-oxo-imidazo[1,2-a]inden” (Bioorg Med Chem Lett, 2000)

What was measured:
[1] = target: T1, Glutamate receptor ionotropic, AMPA (Rattus norvegicus, UniProt P19490+P19491+P19492+P19493)
Description: Binding affinity for Ionotropic glutamate receptor AMPA

Mus musculus [2] = organism: Mus musculus; assay: Anticonvulsant activity in male CD1 mice; assay type: functional
[3] = target: T1, Glutamate receptor ionotropic, AMPA; remark: listed apart in the source
Description: Antagonistic activity against Ionotropic glutamate receptor AMPA using kainate-evoked current in Xenopus oocytes injected with rat brain mRNA

Glutamate NMDA receptor = assay: Binding affinity for N-methyl-D-aspartate glutamate receptor; assay type: protein-complex assay, Rattus norvegicus
Mus musculus [4] = assay: Anticonvulsant activity against GABA receptor complex after intra peritoneal administration in CD1 mouse
Mus musculus [5] = assay: Anticonvulsant activity after subcutaneous administration in CD1 mouse
Mus musculus [6] = assay: Effective dose in mouse after i.p. administration; assay type: functional; details: ip
Mus musculus [7] = assay: Anticonvulsant activity against glutamic acid receptor complex after subcutaneous administration in CD1 mouse; assay type: functional; details: sc
Mus musculus [8] = assay: Effective dose in MES test in mouse after s.c. administration; assay type: functional; details: sc
Rattus norvegicus [9] = assay: Effective dose in MES test in SD rat after i.p. administration; details: ip
Mus musculus [10] = assay: Effective dose in MES test in mouse after i.p. administration; details: ip
Rattus norvegicus [11] = assay: Effective dose in MES test in SD rat after i.v. administration; assay type: functional; details: iv
Rattus norvegicus [12] = assay: Effective dose in MES test in SD rat after s.c. administration; assay type: functional; details: sc
[13] = target: T1, Glutamate receptor ionotropic, AMPA; assay: Binding affinity against Ionotropic glutamate receptor AMPA in rat brain
Mus musculus [14] = assay: Effective dose in MES test in mouse after i.v. administration; assay type: functional; details: iv
Mus musculus [15] = organism: Mus musculus; assay: Compound was tested for the maximal electroshock effect in mice; assay type: functional

Structure (SMILES) | IC50 [1] [nM] | ED50 (Mus musculus [2]) [mg/kg] | IC50 [3] [nM] | IC50 (Glutamate NMDA receptor) [nM] | also measured
O=C(O)c1ccc2c(c1)Cc1c-2nc(O)c2nccn12 | 620 | > 80 | 2010 | 10000 | –
CC(C(=O)O)c1cccc2c1Cc1c-2nc(O)c2nc(C(=O)O)cn12 (configuration not stated) | 450 | 19 | 53 | 4100 | –
NS(=O)(=O)c1cccc2c1c([N+](=O)[O-])cc1nc(O)c(O)nc12 [NBQX] | – | 36 | – | – | –
Oc1nc2c(n3ccnc13)Cc1ccccc1-2 | – | 62 | 1800 | – | –
O=C(O)Cc1cccc2c1Cc1c-2nc(O)c2nccn12 | 89 | > 80 | 104 | > 10000 | –
O=C(O)Cc1cccc2c1Cc1c-2nc(O)c2nc(C(=O)O)cn12 | 18 | 1.2 | 5 | 7200 | ED50 (Mus musculus [4]): 1.7 mg/kg; ED50 (Mus musculus [5]): ~16 mg/kg; ED50 (Mus musculus [6]): 0.8 mg/kg; ED50 (Mus musculus [7]): 1.5 mg/kg; ED50 (Mus musculus [8]): 1 mg/kg; ED50 (Rattus norvegicus [9]): 4.8 mg/kg; ED50 (Mus musculus [10]): 1.2 mg/kg; ED50 (Rattus norvegicus [11]): 0.4 mg/kg; ED50 (Rattus norvegicus [12]): 1 mg/kg; IC50 [13]: 4 nM; ED50 (Mus musculus [14]): 0.5 mg/kg; ED50 (Mus musculus [15]): ≤ 2 mg/kg
O=C(O)Cc1cn2c3c(nc(O)c2n1)-c1cccc(CC(=O)O)c1C3 | 4 | 2 | 23 | 2100 | –
O=c1[nH]c2cc(-n3ccnc3)c([N+](=O)[O-])cc2[nH]c1=O [YM-90K] | – | 12 | 260 | – | –
O=C(O)Cc1ccc2c(c1)Cc1c-2nc(O)c2nccn12 | 10000 | – | 2640 | > 10000 | –
O=C(O)[C@@H]1C[C@H]2C[C@@H](CCc3nn[nH]n3)CC[C@H]2CN1 [TEZAMPANEL ANHYDROUS] | – | 4 | 230 | – | –
O=C(O)c1cccc2c1Cc1c-2nc(O)c2nccn12 | 3500 | – | 3250 | 21000 | –
O=C(O)Cc1ccc2c(c1)Cc1c-2nc(O)c2nc(C(=O)O)cn12 | 611 | 16 | 214 | > 10000 | –
O=C(O)c1cn2c3c(nc(O)c2n1)-c1ccccc1C3 | – | 50 | 29 | 83 | –
